Experimental data published in paper PMC4844649, “A first-in-Asian phase 1 study to evaluate safety, pharmacokinetics and clinical activity of VS-6063, a focal adhesion kinase (FAK) inhibitor in Japanese patients with advanced solid tumors” (Cancer Chemotherapy and Pharmacology, 2016).
Where “and” joins values, the source holds several entries; their conditions need not be identical. Identical values can stand only once. Entries after “also recorded” stand apart in the source; their conditions may differ.

Columns and labels:
[1] = phase 1 safety and tolerability (CTCAE v4.03) in Japanese patients with advanced solid tumors; type: in vivo; details: for Grade 3 AE of unconjugated hyperbilirubinemia: 200 mg BID cohort; for dose-limiting toxicities (DLTs): 200–600 mg BID
Procedure: This was a phase 1, open-label, dose-escalation study to evaluate the safety and PK of VS-6063, a FAK inhibitor in Japanese subjects with advanced solid tumor malignancies. This study was expected to enroll up to 18 evaluable subjects with non-hematologic malignancies if 6 subjects were assigned at each of the 3 planned dose levels of 200, 400, and 600 mg BID. VS-6063 was administered orally, BID, in continuous 21 day cycles. Subject enrollment proceeded according to a standard 3 + 3 design. In the absence of DLT, each subject received oral VS-6063 (BID) for a minimum of 21 days of continuous daily dosing (1 cycle) and could continue to receive additional cycles of study treatment until disease progression was documented or other treatment discontinuation criteria were met. All patients within a cohort were required to complete 1 cycle (21 days) of dosing with <1 of 3 or <2 of 6 subjects experiencing a DLT prior to escalation to the next dose level in a new cohort. Three subjects were to be treated at each dose level until the first instance of DLT, after which up to 6 subjects were to be treated at that dose level. […] The MTD was defined as the highest dose level studied at which <1 subject out of 3 or <2 subjects out of 6 experienced a DLT. The RP2D was to be determined in discussion among the sponsor, medical monitor, and investigators. Observations related to PK and any VS-6063-related toxicities were included in the rationale supporting the RP2D. Safety and tolerability was assessed by the incidence and severity of AEs as determined by National Cancer Institute (NCI) Common Terminology Criteria for Adverse Events (CTCAE v4.03). The antitumor activity of study treatment was assessed according to the Response Evaluation Criteria in Solid Tumors (RECIST v1.1).

recombinant human Pyk2 = details: in vitro; background statement, no reference given; read-out: IC50, inhibition of recombinant human Pyk2 activity; cited from earlier work
[2] = 24-h urine collection, elimination of VS-6063 and metabolites; type: in vivo, human; details: all dose cohorts
Source text: To assess the elimination of VS-6063 and its potential metabolites, total 24-h urine output was to be collected on Cycle 1 Day 1 and Cycle 1 Day 15 in conjunction with PK sampling.

[3] = 200 mg BID, N = 3, listed as defactinib
[4] = 400 mg BID, N = 3, listed as defactinib
[5] = 600 mg BID, N = 3, listed as defactinib
[6] = Total, N = 9, listed as defactinib

## CNC(=O)c1ccc(Nc2ncc(C(F)(F)F)c(NCc3nccnc3N(C)S(C)(=O)=O)n2)cc1 [VS-6063, defactinib]
[1]
  Grade 3 AE of unconjugated hyperbilirubinemia: Only one subject
[1]; listed as defactinib
  Grade 3 AE of unconjugated hyperbilirubinemia: Only one patient
[1]; 200 mg BID, N = 3
  Anemia, treatment-related adverse event: 0 n (%)
  Aspartate aminotransferase increased, treatment-related adverse event: 1 (33.3) n (%)
  Blood alkaline phosphatase increased, treatment-related adverse event: 2 (66.7) n (%)
  Blood bilirubin increased, treatment-related adverse event: 3 (100.0) n (%)
  Decreased appetite, treatment-related adverse event: 2 (66.7) n (%)
  Diarrhea, treatment-related adverse event: 0 n (%)
  Fatigue, treatment-related adverse event: 2 n (%) and 2 (66.7) n (%)
  Headache, treatment-related adverse event: 0 n (%)
  Nausea, treatment-related adverse event: 1 (33.3) n (%)
[1]; [3]
  Blood bilirubin increased, treatment-related adverse event: 3 n (%)
  Nausea, treatment-related adverse event: 1 n (%)
[1]; 400 mg BID, N = 3
  Anemia, treatment-related adverse event: 0 n (%)
  Aspartate aminotransferase increased, treatment-related adverse event: 0 n (%)
  Blood alkaline phosphatase increased, treatment-related adverse event: 0 n (%)
  Blood bilirubin increased, treatment-related adverse event: 2 (66.7) n (%)
  Decreased appetite, treatment-related adverse event: 1 (33.3) n (%)
  Diarrhea, treatment-related adverse event: 1 (33.3) n (%)
  Fatigue, treatment-related adverse event: 1 n (%) and 1 (33.3) n (%)
  Headache, treatment-related adverse event: 1 (33.3) n (%)
  Nausea, treatment-related adverse event: 0 n (%)
[1]; [4]
  Blood bilirubin increased, treatment-related adverse event: 2 n (%)
  Diarrhea, treatment-related adverse event: 1 n (%)
[1]; 600 mg BID, N = 3
  Anemia, treatment-related adverse event: 2 (66.7) n (%)
  Aspartate aminotransferase increased, treatment-related adverse event: 1 (33.3) n (%)
  Blood alkaline phosphatase increased, treatment-related adverse event: 0 n (%)
  Blood bilirubin increased, treatment-related adverse event: 2 (66.7) n (%)
  Decreased appetite, treatment-related adverse event: 1 (33.3) n (%)
  Diarrhea, treatment-related adverse event: 2 (66.7) n (%)
  Fatigue, treatment-related adverse event: 3 n (%) and 3 (100.0) n (%)
  Headache, treatment-related adverse event: 1 (33.3) n (%)
  Nausea, treatment-related adverse event: 1 (33.3) n (%)
[1]; [5]
  Blood bilirubin increased, treatment-related adverse event: 2 n (%)
  Diarrhea, treatment-related adverse event: 2 n (%)
  Nausea, treatment-related adverse event: 1 n (%)
[1]; Japanese subjects
  recommended Phase 2 dose (RP2D): 400 mg BID
[1]; Total, N = 9
  Anemia, treatment-related adverse event: 2 (22.2) n (%)
  Aspartate aminotransferase increased, treatment-related adverse event: 2 (22.2) n (%)
  Blood alkaline phosphatase increased, treatment-related adverse event: 2 (22.2) n (%)
  Blood bilirubin increased, treatment-related adverse event: 7 (77.8) n (%)
  Decreased appetite, treatment-related adverse event: 4 (44.4) n (%)
  Diarrhea, treatment-related adverse event: 3 (33.3) n (%)
  Fatigue, treatment-related adverse event: 6 (66.7) n (%)
  Headache, treatment-related adverse event: 2 (22.2) n (%)
  Nausea, treatment-related adverse event: 2 (22.2) n (%)
[1]; [6]
  Blood bilirubin increased, treatment-related adverse event: 7 n (%)
  Decreased appetite, treatment-related adverse event: 4 n (%)
  Diarrhea, treatment-related adverse event: 3 n (%)
  Fatigue, treatment-related adverse event: 6 n (%)
  Nausea, treatment-related adverse event: 2 n (%)
[1]; all dose cohorts
  AEs leading to death, SAEs, AEs leading to early study withdrawal: no AEs leading to death or SAEs, and no AEs leading to early study withdrawal
  concurrent increases in ALT or AST above ULN in subjects with hyperbilirubinemia: no increase in ALT or AST values associated with the increases in bilirubin
  proteinuria: no subject developed any grade of proteinuria
[1]; all dose cohorts, listed as defactinib
  concurrent increases in ALT or AST above ULN in subjects with hyperbilirubinemia: None of these subjects had concurrent increases in ALT or AST above ULN
[1]; all dose levels investigated
  tolerability: well tolerated at all dose levels investigated; also recorded: acceptable safety profile
[1]; any dose cohort
  ECG parameters and QTc interval: No clinically meaningful changes in any ECG parameter were observed for any dose cohort and no subject had a QTc interval ≥500 ms or QTc increase from baseline >30 ms
  dose-limiting toxicities (DLTs): No dose-limiting toxicities were observed at any dose level
[1]; any dose cohort, listed as defactinib
  dose-limiting toxicities (DLTs): No DLTs were reported in any dose cohort
[1]; of the 9 subjects
  subjects requiring dose modification for increased bilirubin: 1 subjects
[1]; one patient, 200 mg cohort, following interruption of study drug
  time to resolution of Grade 3 hyperbilirubinemia after onset: 6 days
[1]; typical onset, asymptomatic
  onset of hyperbilirubinemia after initiating treatment: ≤ 2 weeks
Recombinant human Pyk2
  IC50: 0.6 nM
[2]
  detection in urine: detected in the urine of all patients
[2]; 24-h urine
  amount in urine, percent relative to the total dose administered, range: 0.0439 to 0.356%
[2]; human, oral, 24-h urine, Days 1 and 15, read-out: mean renal clearance (CLr), range
  CL renal: 1.43 to 2.98 mL/min
